Experimental data: ChEMBL document CHEMBL1150056, “5-Epi-isospongiaquinone, a new sesquiterpene/quinone antibiotic from an Australian marine sponge, Spongia hispida” (1992)

Columns and labels:
Staphylococcus aureus = assay: Antibacterial activity against Staphylococcus aureus assessed per disk; format: functional
Micrococcus sp. = assay: Antibacterial activity against Micrococcus sp. assessed per disk; format: functional

Row | MIC (Staphylococcus aureus) | MIC (Micrococcus sp.) | SMILES
1 | 20 µg | 20 µg | COC1=CC(=O)C(O)=C(C[C@]2(C)[C@@H](C)CC[C@@]3(C)C(C)=CCC[C@@H]23)C1=O
2 | 50 µg | 50 µg | CCOC1=CC(=O)C(O)=C(C[C@]2(C)[C@@H](C)CC[C@@]3(C)C(C)=CCC[C@@H]23)C1=O
